Test results taken from the CheMixHub ionic liquid set.

Assay: xn = mol fraction of the nth substance listed

CCCC[n+]1ccn(C)c1.O=S(=O)([N-]S(=O)(=O)C(F)(F)F)C(F)(F)F + CC#N
Conditions | electrical conductivity, x1 = 0.0063 [S/m] | electrical conductivity, x1 = 0.01076 [S/m] | electrical conductivity, x2 = 0.661 [S/m] | electrical conductivity, x2 = 0.905 [S/m] | viscosity, x2 = 0 [mPa·s] | viscosity, x2 = 0.1534 [mPa·s] | viscosity, x2 = 0.2508 [mPa·s] | viscosity, x2 = 0.602 [mPa·s] | viscosity, x2 = 0.7518 [mPa·s]
294.5 K, 100 kPa | – | 1.58 | – | – | – | – | – | – | –
298 K, 101 kPa | 1.14 | – | 2.25 | 4.42 | 50.4 | 34.4 | 25.4 | 6.4 | 2.73

CC[n+]1ccn(C)c1.O=S(=O)([O-])O + CC(C)[C@H](N)C(=O)O + O
viscosity [mPa·s], 100 kPa
Conditions | 293.15 K | 298.15 K | 303.15 K | 308.15 K | 313.15 K
x2 = 0, x1 = 0.0005421 | 1.046 | 0.929 | 0.824 | 0.75 | 0.678
x2 = 0, x1 = 0.0009056 | 1.068 | 0.949 | 0.843 | 0.759 | 0.684
x2 = 0, x1 = 0.001263 | 1.073 | 0.966 | 0.866 | 0.78 | 0.697
x2 = 0.0003674, x1 = 0.0009053 | 1.09 | 0.958 | 0.851 | 0.767 | 0.691
x2 = 0.0003913, x1 = 0.0005419 | 1.068 | 0.938 | 0.832 | 0.758 | 0.686
x2 = 0.0003924, x1 = 0.001263 | 1.096 | 0.975 | 0.875 | 0.787 | 0.705
x2 = 0.0007372, x1 = 0.001262 | 1.117 | 0.983 | 0.882 | 0.794 | 0.711
x2 = 0.000749, x1 = 0.0009049 | 1.112 | 0.966 | 0.859 | 0.774 | 0.698
x2 = 0.0007642, x1 = 0.0005417 | 1.09 | 0.947 | 0.84 | 0.765 | 0.693
x2 = 0.001083, x1 = 0.0005415 | 1.108 | 0.954 | 0.847 | 0.771 | 0.699
x2 = 0.001089, x1 = 0.0009046 | 1.132 | 0.974 | 0.866 | 0.781 | 0.704
x2 = 0.001118, x1 = 0.001262 | 1.139 | 0.992 | 0.89 | 0.802 | 0.718
x2 = 0.001457, x1 = 0.001262 | 1.159 | 1 | 0.897 | 0.808 | 0.725
x2 = 0.001475, x1 = 0.0009042 | 1.155 | 0.983 | 0.874 | 0.788 | 0.711
x2 = 0.001477, x1 = 0.0005413 | 1.131 | 0.963 | 0.855 | 0.779 | 0.706
x2 = 0.001795, x1 = 0.0005411 | 1.149 | 0.97 | 0.861 | 0.785 | 0.712
x2 = 0.001812, x1 = 0.0009039 | 1.175 | 0.991 | 0.881 | 0.795 | 0.717
x2 = 0.001817, x1 = 0.001261 | 1.18 | 1.008 | 0.905 | 0.816 | 0.731
x2 = 0.002249, x1 = 0.0005409 | 1.176 | 0.98 | 0.871 | 0.794 | 0.721
x2 = 0.002256, x1 = 0.001261 | 1.206 | 1.018 | 0.915 | 0.824 | 0.739
x2 = 0.002283, x1 = 0.0009035 | 1.203 | 1.001 | 0.891 | 0.804 | 0.726
